# Columns and labels:
# Yersinia enterocolitica = assay: Antibacterial activity against Yersinia enterocolitica assessed as percent susceptible isolates by broth microdilution method; type: functional
# [1] = Antibacterial activity against Salmonella enterica serovar Choleraesuis by broth microdilution method; type: functional, Salmonella enterica subsp. enterica serovar Choleraesuis
# Vibrio parahaemolyticus = assay: Antibacterial activity against Vibrio parahaemolyticus by broth microdilution method; type: functional
# Aeromonas caviae = assay: Antibacterial activity against Aeromonas caviae assessed as percent resistant isolates by broth microdilution method; type: functional
# Campylobacter sp. [2] = assay: Antibacterial activity against Campylobacter sp. assessed as growth inhibition at =>4 ug/ml by broth microdilution method; type: functional
# Escherichia coli [3] = assay: Antibacterial activity against Escherichia coli assessed as growth inhibition at 1 ug/ml by broth microdilution method; type: functional
# Vibrio sp. [4] = assay: Antibacterial activity against Vibrio sp. assessed as growth inhibition at 0.008 ug/ml by broth microdilution method; type: functional
# [5] = Antibacterial activity against Salmonella enterica serovar Choleraesuis assessed as percent susceptible isolates by broth microdilution method; type: functional, Salmonella enterica subsp. enterica serovar Choleraesuis
# Campylobacter sp. [6] = assay: Antibacterial activity against Campylobacter sp. assessed as growth inhibition at 0.12 ug/ml by broth microdilution method; type: functional
# Vibrio vulnificus [7] = assay: Antibacterial activity against Vibrio vulnificus assessed as percent resistant isolates by broth microdilution method; type: functional
# Aeromonas sp. [8] = assay: Antibacterial activity against Aeromonas sp. assessed as growth inhibition at 0.06 ug/ml by broth microdilution method; type: functional
# Campylobacter sp. [9] = assay: Antibacterial activity against Campylobacter sp. assessed as growth inhibition at 0.016 ug/ml by broth microdilution method; type: functional
# Aeromonas veronii = assay: Antibacterial activity against Aeromonas veronii assessed as percent resistant isolates by broth microdilution method; type: functional
# Aeromonas sp. [10] = assay: Antibacterial activity against Aeromonas sp. assessed as growth inhibition at 2 ug/ml by broth microdilution method; type: functional
# Salmonella sp. = assay: Antibacterial activity against Salmonella sp. assessed as growth inhibition at 0.06 ug/ml by broth microdilution method; type: functional
# Vibrio sp. [11] = assay: Antibacterial activity against Vibrio sp. assessed as growth inhibition at 0.004 ug/ml by broth microdilution method; type: functional
# Salmonella typhimurium [12] = assay: Antibacterial activity against Salmonella enterica serovar Typhimurium by broth microdilution method; type: functional, Salmonella enterica subsp. enterica serovar Typhimurium
# Campylobacter sp. [13] = assay: Antibacterial activity against Campylobacter sp. assessed as growth inhibition at 0.008 ug/ml by broth microdilution method; type: functional
# Escherichia coli [14] = assay: Antibacterial activity against Escherichia coli by broth microdilution method; type: functional
# Shigella sp. = assay: Antibacterial activity against Shigella sp. assessed as growth inhibition at 0.004 ug/ml by broth microdilution method; type: functional
# Campylobacter sp. [15] = assay: Antibacterial activity against Campylobacter sp. assessed as growth inhibition at 0.06 ug/ml by broth microdilution method; type: functional
# Yersinia sp. [16] = assay: Antibacterial activity against Yersinia sp. assessed as growth inhibition at 0.03 ug/ml by broth microdilution method; type: functional; settings: Yersinia sp. (in: enterobacteria)
# Escherichia coli [17] = assay: Antibacterial activity against enteropathogenic Escherichia coli by broth microdilution method; type: functional
# Yersinia sp. [18] = assay: Antibacterial activity against Yersinia sp. assessed as growth inhibition at 0.016 ug/ml by broth microdilution method; type: functional; settings: Yersinia sp. (in: enterobacteria)
# Escherichia coli [19] = assay: Antibacterial activity against enteroaggregative Escherichia coli by broth microdilution method; type: functional
# [20] = tested on: Yersinia pseudotuberculosis; assay: Antibacterial activity against Yersinia pseudotuberculosis by broth microdilution method; type: functional
# Escherichia coli [21] = assay: Antibacterial activity against enteroaggregative Escherichia coli assessed as percent resistant isolates by broth microdilution method; type: functional
# Salmonella typhi = assay: Antibacterial activity against Salmonella enterica serovar Typhi assessed as percent susceptible isolates by broth microdilution method; type: functional, Salmonella enterica subsp. enterica serovar Typhi
# Vibrio cholerae [22] = assay: Antibacterial activity against Vibrio cholerae assessed as percent resistant isolates by broth microdilution method; type: functional
# Aeromonas sobria = assay: Antibacterial activity against Aeromonas sobria assessed as percent susceptible isolates by broth microdilution method; type: functional
# Vibrio alginolyticus [23] = assay: Antibacterial activity against Vibrio alginolyticus assessed as percent resistant isolates by broth microdilution method; type: functional
# Yersinia sp. [24] = assay: Antibacterial activity against Yersinia sp. assessed as growth inhibition at 0.004 ug/ml by broth microdilution method; type: functional; settings: Yersinia sp. (in: enterobacteria)
# Aeromonas sp. [25] = assay: Antibacterial activity against Aeromonas sp. assessed as growth inhibition at 0.016 ug/ml by broth microdilution method; type: functional
# Plesiomonas shigelloides = assay: Antibacterial activity against Plesiomonas shigelloides assessed as growth inhibition at 0.004 ug/ml by broth microdilution method; type: functional
# Escherichia coli [26] = assay: Antibacterial activity against Escherichia coli assessed as growth inhibition at 0.016 ug/ml by broth microdilution method; type: functional
# Vibrio vulnificus [27] = assay: Antibacterial activity against Vibrio vulnificus by broth microdilution method; type: functional
# Escherichia coli [28] = assay: Antibacterial activity against Escherichia coli assessed as growth inhibition at 0.12 ug/ml by broth microdilution method; type: functional
# Vibrio vulnificus [29] = assay: Antibacterial activity against Vibrio vulnificus assessed as percent susceptible isolates by broth microdilution method; type: functional
# Vibrio alginolyticus [30] = assay: Antibacterial activity against Vibrio alginolyticus by broth microdilution method; type: functional
# Salmonella typhimurium [31] = assay: Antibacterial activity against Salmonella enterica serovar Typhimurium assessed as percent resistant isolates by broth microdilution method; type: functional, Salmonella enterica subsp. enterica serovar Typhimurium; settings: pooled result: one value given for 8 cell lines, strains, targets or settings
# Vibrio cholerae [32] = assay: Antibacterial activity against Vibrio cholerae by broth microdilution method; type: functional
# Vibrio fluvialis = assay: Antibacterial activity against Vibrio fluvialis assessed as percent resistant isolates by broth microdilution method; type: functional
# [33] = Escherichia coli, read-out: MIC50
# [34] = Escherichia coli, read-out: MIC90
smiles,measurement,setting,value
CC1Sc2c(C(=O)O)c(=O)c3cc(F)c(N4CCNCC4)cc3n21 (stereo not given) [ULIFLOXACIN],Activity,Yersinia enterocolitica,100%
same,MIC50,[1],8 ng/mL
same,MIC90,[1],30 ng/mL
same,MIC50,Vibrio parahaemolyticus,16 ng/mL
same,MIC90,Vibrio parahaemolyticus,30 ng/mL
same,Activity,Aeromonas caviae,2%
same,inhibition (INH),Campylobacter sp. [2],100%
same,inhibition at 1 µg/mL,Escherichia coli [3],97%
same,inhibition at 0.008 µg/mL,Vibrio sp. [4],40%
same,Activity,[5],100%
same,inhibition at 0.12 µg/mL,Campylobacter sp. [6],82%
same,Activity,Vibrio vulnificus [7],0%
same,inhibition at 0.06 µg/mL,Aeromonas sp. [8],92%
same,inhibition at 0.016 µg/mL,Campylobacter sp. [9],8%
same,Activity,Aeromonas veronii,2%
same,inhibition at 2 µg/mL,Aeromonas sp. [10],98%
same,inhibition at 0.06 µg/mL,Salmonella sp.,97%
same,inhibition at 0.004 µg/mL,Vibrio sp. [11],35%
same,MIC50,Salmonella typhimurium [12],8 ng/mL
same,MIC90,Salmonella typhimurium [12],30 ng/mL
same,inhibition at 0.008 µg/mL,Campylobacter sp. [13],2%
same,MIC50,Escherichia coli [14],8 ng/mL
same,MIC90,Escherichia coli [14],8 ng/mL
same,inhibition at 0.004 µg/mL,Shigella sp.,62%
same,inhibition at 0.06 µg/mL,Campylobacter sp. [15],77%
same,inhibition at 0.03 µg/mL,Yersinia sp. [16],93%
same,MIC,Escherichia coli [17],4 ng/mL
same,MIC50,Escherichia coli [17],8 ng/mL
same,MIC90,Escherichia coli [17],8 ng/mL
same,MIC50,Escherichia coli [17]; [33],8 ng/mL
same,MIC90,Escherichia coli [17]; [34],8 ng/mL
same,inhibition at 0.016 µg/mL,Yersinia sp. [18],93%
same,MIC,Escherichia coli [19],4 ng/mL
same,MIC50,Escherichia coli [19],4 ng/mL
same,MIC90,Escherichia coli [19],8 ng/mL
same,MIC,"Escherichia coli [19]; Escherichia coli, read-out: MIC",4 ng/mL
same,MIC50,Escherichia coli [19]; [33],4 ng/mL
same,MIC90,Escherichia coli [19]; [34],8 ng/mL
same,MIC,[20],8 ng/mL
same,MIC50,[20],8 ng/mL
same,MIC90,[20],16 ng/mL
same,Activity,Escherichia coli [21],0%
same,Activity,Salmonella typhi,100%
same,Activity,Vibrio cholerae [22],0%
same,Activity,Aeromonas sobria,98%
same,Activity,Vibrio alginolyticus [23],0%
same,inhibition at 0.004 µg/mL,Yersinia sp. [24],0%
same,inhibition at 0.016 µg/mL,Aeromonas sp. [25],78%
same,inhibition at 0.004 µg/mL,Plesiomonas shigelloides,75%
same,inhibition at 0.016 µg/mL,Escherichia coli [26],94%
same,MIC50,Vibrio vulnificus [27],16 ng/mL
same,MIC90,Vibrio vulnificus [27],30 ng/mL
same,inhibition at 0.12 µg/mL,Escherichia coli [28],97%
same,Activity,Vibrio vulnificus [29],100%
same,MIC50,Vibrio alginolyticus [30],16 ng/mL
same,MIC90,Vibrio alginolyticus [30],30 ng/mL
same,Activity,Salmonella typhimurium [31],0%
same,MIC50,Vibrio cholerae [32],16 ng/mL
same,MIC90,Vibrio cholerae [32],30 ng/mL
same,Activity,Vibrio fluvialis,0%

# Reference: ChEMBL document CHEMBL1629662, “Antimicrobial activity of prulifloxacin tested against a worldwide collection of gastroenteritis-producing pathogens, including those causing traveler's diarrhea” (2009)
